Source: patent US6696490B2, “Slow release insect repellent compounds and process for delivering active” (priority 2002, dated 2004)
“Also recorded” adds a separate entry of the source.

Legend:
Type in all cases: in vivo
[1] = SPME/GC-MS of PMD generated by hydrolysis of PMDL placed on the skin; conditions: 100 μg/cm^2 PMDL on skin, sampling 0 to 300 min, FIG. 3a
Experimental: Solid Phase Microextraction (SPME) is a sample preparation technique which has been used for trapping volatiles. In the subject invention, SPME was used to extract and concentrate PMD vapour (by-product of PMDL hydrolysis) in the headspace. The extracted analytes were then analyzed by Gas Chromatography-Mass Spectroscopy (GC-MS). The SPME fiber used here was from Supelco, a 2.0 cm long, StableFlex fiber (23-gauge needle), 50/30 divinylenzene/carboxene on polydimethylsiloxane. Agilent 6890 Gas Chromatography equipped with Agilent 5973 Mass Selective Detector and Chemstation, G1701CA software were used for analyzing and identifying PMD. GC was equipped with a 0.25 […] HP-5 capillary column with 0.25 micrometer of cross-linked 5% Phenyl Methyl Siloxane. The GC oven was programmed to increase its temperature at 2 min from the initial temperature of 60° C. to 300° C. at 6° C./min. The injector temperature and the head pressure were 250° C. and 8.6 psi, respectively. The flow rate of the carrier gas (helium) was 1 mL/min The total flow rate was set at 25 mL/min Purge was off for 0.5 min, i.e. from a split mode into a splitless mode after the program was started. Agilent 5973 Mass Selective Detector with an ion source by an electron impact (El) data system was used for mass spectrometric identification. […]

[2] = Ethanol extraction of PMD- and PMDL-treated skin followed by GC-MS
Experimental: PMDL standard and ethanol skin extracts were also analyzed by GC-MS. The injection mode for PMDL was a split mode at 10:1 split ratio. The rest of conditions were the same as the ones used for PMD analysis by GC-MS as are listed above. The SPME apparently is a tube (e.g., dome or other like structure) strapped to measured area (e.g., arm) with an opening (e.g., at top) to insert analytical extractor which is essentially a needle used to trap/absorb volatiles released in the apparatus.
(§1) In this set, individual stock solutions of PMD and PMDL were prepared by placing 0.0978 g PMD and 0.1095 g in 5 mL of ethanol, respectively. Then five areas of skin, about 7 cm^2 on each arm, were selected. One of the five spots on each arm remained untreated as control and marked as a blank. The remaining four areas on the right arm were dosed with 32 μL PMDL and the remaining four areas on the left arm were dosed with 36 μL of PMD. Untreated area 1, and the treated area on each arm marked as 2, 3, 4, and 5, were then extracted with 4 mL of ethanol for a period of 3 min at 0, 15, 60 and 150 min intervals, respectively. Collected extracts were then analyzed by GC-MS for their PMD and PMDL and by APCI-MS for their linoleic acid contents (FIGS. 4, 5, 6 and 7). FIG. 4 is plot of PMD, FIG. 5 is plot of PMDL; and FIGS. 6 and 7 are plots for linoleic acid.

[3] = Ethanol extraction of PMDL-treated skin followed by APCI-MS for linoleic acid; conditions: FIGS. 6 and 7
Experimental: as §1, with “Another set of experiments was conducted to confirm the results obtained earlier from SPME-GC for PMD & PMDL and also to confirm hydrolysis of PMDL into linoleic acid and PMD on the skin by ethanol extraction of the skin followed by GC-MS and APCI-MS analysis of the collected extracts. In” for “In”, “FIG. 4 is plot of PMD, FIG. 5 is plot of PMDL; and FIGS. 6 and 7 are plots for linoleic acid.” left out
APCI-MS was used to analyze linoleic acid in ethanol skin extracts. […] Samples from the last set of experiments, as described in the […] were analyzed for their linoleic acid level using this technique. Each extracted sample was analyzed in triplicate.

[4] = SPME/GC-MS of headspace above forearm skin dosed with PMD (evaporation of PMD)
Experimental: Solid Phase Microextraction (SPME) is a sample preparation technique which has been used for trapping volatiles. In the subject invention, SPME was used to extract and concentrate PMD vapour (by-product of PMDL hydrolysis) in the headspace. The extracted analytes were then analyzed by Gas Chromatography-Mass Spectroscopy (GC-MS). The SPME fiber used here was from Supelco, a 2.0 cm long, StableFlex fiber (23-gauge needle), 50/30 divinylenzene/carboxene on polydimethylsiloxane. Agilent 6890 Gas Chromatography equipped with Agilent 5973 Mass Selective Detector and Chemstation, G1701CA software were used for analyzing and identifying PMD. GC was equipped with a 0.25 […] HP-5 capillary column with 0.25 micrometer of cross-linked 5% Phenyl Methyl Siloxane. The GC oven was programmed to increase its temperature at 2 min from the initial temperature of 60° C. to 300° C. at 6° C./min. The injector temperature and the head pressure were 250° C. and 8.6 psi, respectively. The flow rate of the carrier gas (helium) was 1 mL/min The total flow rate was set at 25 mL/min Purge was off for 0.5 min, i.e. from a split mode into a splitless mode after the program was started. Agilent 5973 Mass Selective Detector with an ion source by an electron impact (El) data system was used for mass spectrometric identification. The detector was used in a scan mode to scan mass ranging from a Low Mass of 40 to a High Mass of 550. Solvent delay time was 3.5 min. Total sample run time was 60 min.
To determine the extent of evaporation of PMD from the skin matrix over a period of time (correlating to amount of PMD produced by hydrolysis from PMD-L), a number of experiments were carried out. In these experiments, SPME fiber was inserted into a headspace of a glass semi-ball chamber fastened on forearm by an elastic band. […]
For a first set of SPME experiments, a PMD solution at concentration of 21800 μg/mL was prepared by placing 0.218 g of PMD crystals in 10 mL of absolute ethanol. […] The SPME glass chamber and fibers were then removed and the SPME fiber were analyzed by GC-MS for measurement of PMD. […]

| Molecule | PMD signal generated from hydrolysis of PMDL on the skin over time (SPME/GC-MS) [1] | PMD signal generated from hydrolysis of PMDL on the skin over time (SPME/GC-MS) ([1]; listed as PMD-L) | levels of PMDL on PMDL treated skin (GC-MS peak area of ethanol extracts) ([2]; leave on time 0 to 150 min, FIG. 5) | level of PMD on PMDL treated skin ([2]; over a 150 minute period) | linoleic acid level on PMDL treated skin over time ([3]; APCI-MS of ethanol extracts at 0, 15, 60 and 150 min) | level of linoleic acid in PMDL treated skin compared to untreated skin (blank) ([3]; APCI-MS of ethanol extracts) | levels of PMD on the skin over leave on time (SPME/GC-MS) ([4]; 40 μg/cm^2 PMD applied neat, 0 to 300 minutes, FIG. 3b) | time over which PMD signal was followed and detected ([4]; 40 μg/cm^2 PMD on forearm skin, SPME extraction time 30 min, FIG. 3b) | time after which PMD signal could not be detected ([4]; 40 μg/cm^2 PMD on forearm skin, SPME sampling time 5 min) | time after which active is no longer present ([2]; PMD delivered in non-ester form, FIG. 4) | PMD levels on PMD treated skin (GC-MS peak area of ethanol extracts) ([2]; leave on time 0 to 150 minutes, FIG. 4) |
| --- | --- | --- | --- | --- | --- | --- | --- | --- | --- | --- | --- |
| 3,8-p-Menthanedilinoleate [PMDL] | presence of high levels of PMD released from the skin at the early stage and then through a decrease in the PMD levels over period of time | initial sharp increase in the concentration of PMD | a trend of decrease in the levels of PMDL on the skin | simultaneous increase in the level of PMD on the skin | an increase in linoleic acid level over the 15 to 60 min period followed by a decrease at 150 min; also recorded: increase in linoleic on treated skin in first hour followed by a decrease | substantially higher in the treated skin samples compared to the untreated skin | – | – | – | – | – |
| CC1CCC(C(C)(C)O)C(O)C1 (centres unmarked) [PMD, 3,8-p-menthanediol, reference compound] | – | – | – | – | – | – | decreased as the leave on time proceeded from 0 to 300 minutes | up to 5 hours | 2 h | 2.5 h | decreased as the leave on time increased from 0 to 150 minutes; also recorded: decrease of PMD |
